The values that follow come from ChEMBL document CHEMBL2380191, “Novel racemic tetrahydrocurcuminoid dihydropyrimidinone analogues as potent acetylcholinesterase inhibitors” (Bioorg Med Chem Lett, 2013).

The target in the experiment is Acetylcholinesterase (Electrophorus electricus, UniProt O42275). In words: Inhibition of electric eel AChE using acetylthiocholine iodide as substrate after 15 mins by Ellman's method.
Acetylcholinesterase, sequence (O42275 whole entry): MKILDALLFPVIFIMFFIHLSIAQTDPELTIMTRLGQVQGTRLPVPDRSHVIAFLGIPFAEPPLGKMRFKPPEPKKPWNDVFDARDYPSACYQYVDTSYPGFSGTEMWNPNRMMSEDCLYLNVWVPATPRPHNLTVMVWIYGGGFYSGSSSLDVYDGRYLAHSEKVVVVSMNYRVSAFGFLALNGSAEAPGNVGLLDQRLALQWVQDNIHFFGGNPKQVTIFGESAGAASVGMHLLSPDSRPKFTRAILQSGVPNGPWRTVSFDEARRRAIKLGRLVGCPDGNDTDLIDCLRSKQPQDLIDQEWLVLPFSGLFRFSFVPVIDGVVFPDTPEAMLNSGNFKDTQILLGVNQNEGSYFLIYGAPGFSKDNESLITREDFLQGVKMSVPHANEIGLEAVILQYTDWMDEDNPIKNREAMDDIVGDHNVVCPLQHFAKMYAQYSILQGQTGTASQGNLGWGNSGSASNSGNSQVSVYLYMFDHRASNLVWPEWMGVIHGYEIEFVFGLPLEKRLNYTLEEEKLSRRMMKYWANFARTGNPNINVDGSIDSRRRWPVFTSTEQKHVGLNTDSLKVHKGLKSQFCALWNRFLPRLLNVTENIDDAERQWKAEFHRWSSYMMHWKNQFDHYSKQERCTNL
What is called IC50 is the midpoint of a concentration-inhibition curve. Read a high IC50 as a need for much substance. Regarding `COc1ccc(C2NC(=O)NC(CCc3ccc(O)c(OC)c3)=C2C(=O)CCc2ccc(O)cc2)cc1` (racemic), half-maximal inhibition (IC50) required 9.1 µM. To `COc1cc(CCC(=O)C2=C(CCc3ccc(O)c(OC)c3)NC(=O)NC2c2ccccc2)ccc1O` (racemic) belongs 36.3 µM; to `COc1cc(CCC(=O)C2=C(CCc3ccc(O)c(OC)c3)NC(=O)NC2c2ccc(O)c(OC)c2)ccc1O` (racemic), 56.4 µM. The figure for `O=C1NC(CCc2ccc(O)cc2)=C(C(=O)CCc2ccc(O)cc2)C(c2ccccc2)N1` (racemic) is 2.04 µM; for `COc1cc(CCC2=C(C(=O)CCc3ccc(O)cc3)C(c3ccccc3)NC(=O)N2)ccc1O` (racemic) it is 20.9 µM; for `COc1cc(CCC(=O)CC(=O)CCc2ccc(O)c(OC)c2)ccc1O` [TETRAHYDROCURCUMIN] it is 41.2 µM. `COc1ccc(C2NC(=O)NC(CCc3ccc(O)cc3)=C2C(=O)CCc2ccc(O)c(OC)c2)cc1` (racemic) displayed an IC50 of 5.78 µM. As for `COc1cc(CCC(=O)CC(=O)CCc2ccc(O)cc2)ccc1O` [TETRAHYDRODEMETHOXYCURCUMIN], the IC50 worked out at 20.6 µM. To `O=C(CCc1ccc(O)cc1)CC(=O)CCc1ccc(O)cc1` [LETESTUIANIN C] belongs 7.89 µM; to `COc1ccc(C2NC(=O)NC(CCc3ccc(O)cc3)=C2C(=O)CCc2ccc(O)cc2)cc1` (racemic), 1.34 µM. To `COc1ccc(C2NC(=O)NC(CCc3ccc(O)c(OC)c3)=C2C(=O)CCc2ccc(O)c(OC)c2)cc1` (racemic) belongs 14.3 µM; to `COc1cc(CCC(=O)C2=C(CCc3ccc(O)c(OC)c3)NC(=O)NC2c2ccc(O)cc2)ccc1O` (racemic), 17.3 µM. `O=C(/C=C/c1ccc(O)cc1)CC(=O)/C=C/c1ccc(O)cc1` [BISDEMETHOXYCURCUMIN] showed an IC50 of 18.3 µM. To `COc1cc(/C=C/C(O)=C/C(=O)/C=C/c2ccc(O)cc2)ccc1O` [DEMETHOXYCURCUMIN] belongs 37.7 µM; to `COc1cc(CCC(=O)C2=C(CCc3ccc(O)cc3)NC(=O)NC2c2ccccc2)ccc1O` (racemic), 10.7 µM.
